In patent US10233193B2, “Fused tricyclic heterocyclic compounds useful for treating HIV infection” (MERCK SHARP & DOHME CORP., priority 2015, dated 2019):
pIC50: −log10 of the molar value. Like-named read-outs stand apart in the source and are kept apart here.

Tested on: HIV-1 (NL4-3 strain)
Assay: Assay for inhibition of HIV replication (MT4-gag-GFP reporter cell line, wild type cell assay, Viking)
Type: cell-based
Conditions: IP or IC50 from 4-parameter dose response curve
Method: This assay is a kinetic assay that employs a reporter cell line (MT4-gag-GFP) to quantify the number of new cells infected in each round of replication.
MT4-GFP cells (250,000 cells/ml) were bulk-infected with HIV-1 (NL4-3 strain) at low multiplicity of infection (MOI) in RPMI+10% FBS for 24 hours. Cells were then washed once in RPMI+10% FBS and resuspended in RPMI+0% or 10% or 100% normal human serum (NHS). Test compounds were serial-diluted in DMSO on ECHO. The infected MT4-GFP cells were added to a 384-well poly-D-lysine coated black plate with clear bottom in which the diluted test compounds were placed. The cells were seeded at 8,000 cells per well and the final DMSO concentration was 0.4%. The infected cells (Green GFP cells) were quantified at both 24 and 48 hours post incubation using Acumen eX3. Viral reproductive ratio (R0) was determined using the number of infected cells at 48 hours divided by the number of infected cells at 24 hours. Percent viral growth inhibition was calculated by [1−(R−Rtripledrug)/(RDMSO−Rtripledrug)]*100. Compound potency IP or IC50 was determined by a 4-parameter dose response curve analysis.
Illustrative compounds of the present invention were tested using this assay protocol and results are presented below in Table A.

For CN1CC[C@@H]2C1C(C)(C)C(=O)c1c(O)c(=O)c(C(=O)NCc3ccc(F)cc3F)cn12 (some centres unmarked) [Compound 9], the pIC50 (infected MT4-GFP cells in 100% normal human serum, read-out: WILD TYPE CELL ASSAY Viking IP (100% NHS)) was 6.76 and the pIC50 (infected MT4-GFP cells in RPMI + 0% normal human serum, read-out: WILD TYPE CELL ASSAY Viking IP (0% NHS)) was 8.28.
